Measured values as given in US8552063B2, “Composition for accelerated production of collagen” (E.S.L.I. Limited, priority 2008, dated 2013).

Tested on: human dermal fibroblasts
Assay: Collagen I secretion, CODTA combined with SDA (Example 3)
Assay type: cell-based
Conditions: in combination with Stearidonic Acid base; relative to diluent (vehicle) alone
Description: This example provides outline results of the effect of two test active ingredient mixes on collagen I secretion by human dermal fibroblasts. Human dermal fibroblasts (originally derived from explant cultures of normal human breast dermis) were cultured under standard conditions. Two test combinations of actives (CODTA's when combined with SDA) were initially screened for cytotoxicity before testing.
Collagen I levels were determined and are expressed as a percentage of the levels observed in samples from cultures treated with diluent (vehicle) alone.
Pepsin digests of both cell culture medium, and the cell culture surface (plate) from each treated culture well were analysed.

SMILES	Percentage increase in collagen I secretion [%]
CCCCC\C=C/C=C/C=C/CCCCCCC(=O)O [Calendic Acid, Calendic acid]	187
CCCCC\C=C/C=C/C=C\CCCCCCC(=O)O [Jacaric Acid, Jacaric acid]	278
